Assay [1] has as its system Male Laca mice. The assay can be described thus: Porsolt Forced Swim test (behavioural despair test). The class given is in vivo. The method, then:
Method: Porsolt Forced Swim test (also called behavioural despair test)
Animals are subjected to two trials during which they are force to swim in an acrylic glass cylinder filled with water and from which they cannot escape. The first trial lasts 15 minutes. Then, after 24-hours, a second trial is performed which lasts 5 minutes. The time that the animal spends without moving in the second trial is measured. This immobility time is decreased by antidepressants.
After some time, the mice give up the attempt to escape from the water and subside into immobility. The duration of the immobility is measured. An animal was considered to be immobile whenever it remained floating passively in the water in a slightly hunched but upright position, its nose above the water surface. […] The total immobility period during the 6-min test was recorded with the help of stopwatch.
The immobility period data obtained from tables 1, 2 and 3 is plotted against the dose administered in FIG. 1, FIG. 2 and FIG. 3 respectively, as shown in the drawing accompanying this specification.
Test Procedures: Porsolt Forced Swim test. Rectangular glass jar (25×12×25 cm^3) containing 15 cm of water maintained at 24±1° C.
The immobility period data obtained from Tables 4, 5, 6 and 7 is plotted against the dose administered in FIG. 4, FIG. 5, FIG. 6 and FIG. 7 respectively, as shown in the drawing accompanying this specification.

The subject of assay [2] is 5-hydroxytryptamine. The assay is described as follows: Biological amine levels by HPLC-ECD after 45 min: 5-hydroxytryptamine. In kind it is in vivo, mice. The note with it: fluoxetine 10 mg/kg. On the procedure:
(§1) Test Substances: […] Animals: Male Laca mice. Test Procedures: Animals were sacrificed after 45 min of drug administration similar to the time period of behavioral observations. HPLC-ECD detector: Mobile phase—Phosphate buffer: […] • Column—ODS-3 C-18 column (250×4.6 mm I.D.; 5 μm particle size)

In assay [3] the test system is Dopamine. The assay is described as follows: Biological amine levels by HPLC-ECD after 45 min: dopamine. In kind it is in vivo, mice. The note with it: fluoxetine 10 mg/kg. On the procedure: as §1
Assay [4] relates to Norepinephrine. The assay can be described thus: Biological amine levels by HPLC-ECD after 45 min: norepinephrine. In kind it is in vivo, mice. The note with it: fluoxetine 10 mg/kg. On the procedure:
as §1

Setting [5] is: Table 7, tranylcypromine alone 5 mg/kg ip.
[6] abbreviates: Table 6, desipramine alone 5 mg/kg ip.
[7] abbreviates: Table 4, fluoxetine alone 5 mg/kg ip.
Where [8] appears, read: Table 5, venlafaxine alone 2 mg/kg ip.

Each structure is given as a SMILES string.

Take `N[C@@H]1C[C@H]1c1ccccc1` (racemic) [Tranylcypromine]: in assay [1] (setting [5]), the “% Decrease in immobility w.r.t vehicle group” value was 15.15% and the “Immobility period” value was 234 ± 20.41 s.

For `CNCCCN1c2ccccc2CCc2ccccc21` [Desipramine], in assay [1] (setting [6]), the “% Decrease in immobility w.r.t vehicle group” value amounted to 17.46% and the “Immobility period” value came out at 211.5 ± 21.97 s.

`CNCCC(Oc1ccc(C(F)(F)F)cc1)c1ccccc1` (centres unmarked) [Fluoxetine]: in assay [2], the “5-hydroxytryptamine % increase w.r.t Control” value stood at 36.52%. For the same compound, in assay [2] (n = 5), the “5-hydroxytryptamine (ng/mg tissue)” value was found to be 5.42 ± 0.13 ng/mg tissue. In assay [3], the “Dopamine % increase w.r.t Control” value is 12.15%. The “Dopamine (ng/mg tissue)” value in assay [3] (n = 5) is 6.09 ± 0.54 ng/mg tissue. Further, the “Norepinephrine % increase w.r.t Control” value in assay [4] amounted to 40.87%. Besides, in assay [4] (n = 5), the “Norepinephrine (ng/mg tissue)” value was 4.17 ± 0.23a ng/mg tissue. The “% Decrease in immobility w.r.t saline treated group” value is given as 74.30% in assay [1] (Table 1, fluoxetine 10 mg/kg); 70.51% in assay [1] (Table 2, fluoxetine 10 mg/kg); 70.51% in assay [1] (Table 3, fluoxetine 10 mg/kg). In addition, the “Immobility period” value is 57 ± 17.45 s in assay [1] (Table 1, fluoxetine 10 mg/kg); 57 ± 17.45 s in assay [1] (Table 2, fluoxetine 10 mg/kg); 57 ± 17.45 s in assay [1] (Table 3, fluoxetine 10 mg/kg); 172.75 ± 10.4 s in assay [1] (setting [7]). The “% Decrease in immobility w.r.t saline group” value in assay [1] (setting [7]) is 12.30%.

As for `COc1ccc(C(CN(C)C)C2(O)CCCCC2)cc1` (centres unmarked) [Venlafaxine], in assay [1] (setting [8]), the “% Decrease in immobility w.r.t vehicle group” value is recorded as 8.69% and the “Immobility period” value came out at 193.8 ± 13.26 s.

These data come from patent publication US9259401B2 (priority 2011, dated 2016).
